The target of assay [1] is Cyclin-dependent kinase 17 (Homo sapiens, UniProt Q00537).
Assay [2] addresses Protein kinase C theta type (Homo sapiens, UniProt Q04759).
Assay [3] deals with Serine/threonine-protein kinase Nek7 (Homo sapiens, UniProt Q8TDX7).
For assay [4], the target named is T1, Isoleucine--tRNA ligase, mitochondrial (Homo sapiens, UniProt Q9NSE4).
T1 sequence (Q9NSE4 whole entry): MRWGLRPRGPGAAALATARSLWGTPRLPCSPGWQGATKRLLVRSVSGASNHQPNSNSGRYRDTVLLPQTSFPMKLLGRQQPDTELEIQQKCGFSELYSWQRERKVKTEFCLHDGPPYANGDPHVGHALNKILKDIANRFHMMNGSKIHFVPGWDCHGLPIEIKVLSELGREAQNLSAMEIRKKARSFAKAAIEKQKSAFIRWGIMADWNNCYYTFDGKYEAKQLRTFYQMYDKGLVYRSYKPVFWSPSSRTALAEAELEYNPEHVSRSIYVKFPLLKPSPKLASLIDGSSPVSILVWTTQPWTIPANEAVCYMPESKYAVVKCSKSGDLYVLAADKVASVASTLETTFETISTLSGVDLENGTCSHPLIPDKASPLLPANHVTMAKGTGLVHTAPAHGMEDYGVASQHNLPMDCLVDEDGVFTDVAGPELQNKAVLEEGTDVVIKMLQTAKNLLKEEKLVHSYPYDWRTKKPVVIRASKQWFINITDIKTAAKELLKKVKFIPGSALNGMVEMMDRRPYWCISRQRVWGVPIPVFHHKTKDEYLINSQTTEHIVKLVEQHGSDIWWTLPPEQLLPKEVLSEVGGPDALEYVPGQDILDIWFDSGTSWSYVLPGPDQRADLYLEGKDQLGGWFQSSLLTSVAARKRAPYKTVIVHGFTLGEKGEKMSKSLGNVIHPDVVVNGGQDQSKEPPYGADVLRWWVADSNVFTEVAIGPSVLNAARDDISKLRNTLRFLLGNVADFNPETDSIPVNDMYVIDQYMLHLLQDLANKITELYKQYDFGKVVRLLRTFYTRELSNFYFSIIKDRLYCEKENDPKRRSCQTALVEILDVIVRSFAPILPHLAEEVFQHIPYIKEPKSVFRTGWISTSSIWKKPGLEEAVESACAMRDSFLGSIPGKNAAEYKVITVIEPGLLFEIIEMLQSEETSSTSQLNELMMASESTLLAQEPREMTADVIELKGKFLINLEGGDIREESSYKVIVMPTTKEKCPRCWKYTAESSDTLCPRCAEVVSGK

Assay [5] deals with Serine/threonine-protein kinase 24 (Homo sapiens, UniProt Q9Y6E0).
Sequence of Serine/threonine-protein kinase 24 (Q9Y6E0 whole entry): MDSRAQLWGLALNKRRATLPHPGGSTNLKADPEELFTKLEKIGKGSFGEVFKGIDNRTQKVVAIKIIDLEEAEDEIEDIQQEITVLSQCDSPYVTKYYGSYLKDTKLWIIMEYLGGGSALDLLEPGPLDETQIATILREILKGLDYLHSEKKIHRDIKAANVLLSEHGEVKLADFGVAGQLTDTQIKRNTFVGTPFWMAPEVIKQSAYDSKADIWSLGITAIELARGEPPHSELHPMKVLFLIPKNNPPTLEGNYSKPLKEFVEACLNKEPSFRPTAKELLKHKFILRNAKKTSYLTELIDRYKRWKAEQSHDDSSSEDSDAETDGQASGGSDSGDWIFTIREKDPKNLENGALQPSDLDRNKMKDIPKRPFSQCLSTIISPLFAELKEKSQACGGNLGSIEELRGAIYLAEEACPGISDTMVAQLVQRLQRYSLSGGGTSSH
Assay [6] has as its target Choline-phosphate cytidylyltransferase A (Homo sapiens, UniProt P49585).
Assay [7] deals with T2, Ephrin type-A receptor 1 (Homo sapiens, UniProt P21709).
T2 sequence (P21709 whole entry): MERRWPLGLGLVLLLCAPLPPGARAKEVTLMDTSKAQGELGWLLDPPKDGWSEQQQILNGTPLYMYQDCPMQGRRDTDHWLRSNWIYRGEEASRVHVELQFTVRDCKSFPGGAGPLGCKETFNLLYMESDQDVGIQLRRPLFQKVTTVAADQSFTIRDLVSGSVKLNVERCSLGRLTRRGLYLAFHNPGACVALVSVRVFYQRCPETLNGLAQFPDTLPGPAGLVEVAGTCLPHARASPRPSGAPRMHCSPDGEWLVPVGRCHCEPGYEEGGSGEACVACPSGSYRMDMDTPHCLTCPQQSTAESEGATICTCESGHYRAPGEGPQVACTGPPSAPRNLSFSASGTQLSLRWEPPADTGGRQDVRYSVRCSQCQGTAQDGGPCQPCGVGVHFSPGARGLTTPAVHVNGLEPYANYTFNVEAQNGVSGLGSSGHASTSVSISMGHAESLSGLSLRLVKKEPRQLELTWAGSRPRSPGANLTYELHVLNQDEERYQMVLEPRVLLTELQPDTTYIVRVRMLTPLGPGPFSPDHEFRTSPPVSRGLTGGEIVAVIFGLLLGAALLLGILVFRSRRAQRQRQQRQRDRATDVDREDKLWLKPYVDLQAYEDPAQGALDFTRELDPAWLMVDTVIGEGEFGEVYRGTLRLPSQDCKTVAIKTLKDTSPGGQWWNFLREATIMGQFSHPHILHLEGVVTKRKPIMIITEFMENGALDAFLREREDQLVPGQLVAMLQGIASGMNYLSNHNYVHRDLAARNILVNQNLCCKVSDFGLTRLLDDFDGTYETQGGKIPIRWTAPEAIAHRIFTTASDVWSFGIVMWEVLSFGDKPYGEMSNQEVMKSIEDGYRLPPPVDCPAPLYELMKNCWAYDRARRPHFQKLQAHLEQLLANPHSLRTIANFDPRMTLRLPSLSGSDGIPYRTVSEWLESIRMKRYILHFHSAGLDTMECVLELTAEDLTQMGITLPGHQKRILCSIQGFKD

In assay [8] the target is Serine/threonine-protein kinase ATR (Homo sapiens, UniProt Q13535).
Sequence of Serine/threonine-protein kinase ATR (Q13535 whole entry): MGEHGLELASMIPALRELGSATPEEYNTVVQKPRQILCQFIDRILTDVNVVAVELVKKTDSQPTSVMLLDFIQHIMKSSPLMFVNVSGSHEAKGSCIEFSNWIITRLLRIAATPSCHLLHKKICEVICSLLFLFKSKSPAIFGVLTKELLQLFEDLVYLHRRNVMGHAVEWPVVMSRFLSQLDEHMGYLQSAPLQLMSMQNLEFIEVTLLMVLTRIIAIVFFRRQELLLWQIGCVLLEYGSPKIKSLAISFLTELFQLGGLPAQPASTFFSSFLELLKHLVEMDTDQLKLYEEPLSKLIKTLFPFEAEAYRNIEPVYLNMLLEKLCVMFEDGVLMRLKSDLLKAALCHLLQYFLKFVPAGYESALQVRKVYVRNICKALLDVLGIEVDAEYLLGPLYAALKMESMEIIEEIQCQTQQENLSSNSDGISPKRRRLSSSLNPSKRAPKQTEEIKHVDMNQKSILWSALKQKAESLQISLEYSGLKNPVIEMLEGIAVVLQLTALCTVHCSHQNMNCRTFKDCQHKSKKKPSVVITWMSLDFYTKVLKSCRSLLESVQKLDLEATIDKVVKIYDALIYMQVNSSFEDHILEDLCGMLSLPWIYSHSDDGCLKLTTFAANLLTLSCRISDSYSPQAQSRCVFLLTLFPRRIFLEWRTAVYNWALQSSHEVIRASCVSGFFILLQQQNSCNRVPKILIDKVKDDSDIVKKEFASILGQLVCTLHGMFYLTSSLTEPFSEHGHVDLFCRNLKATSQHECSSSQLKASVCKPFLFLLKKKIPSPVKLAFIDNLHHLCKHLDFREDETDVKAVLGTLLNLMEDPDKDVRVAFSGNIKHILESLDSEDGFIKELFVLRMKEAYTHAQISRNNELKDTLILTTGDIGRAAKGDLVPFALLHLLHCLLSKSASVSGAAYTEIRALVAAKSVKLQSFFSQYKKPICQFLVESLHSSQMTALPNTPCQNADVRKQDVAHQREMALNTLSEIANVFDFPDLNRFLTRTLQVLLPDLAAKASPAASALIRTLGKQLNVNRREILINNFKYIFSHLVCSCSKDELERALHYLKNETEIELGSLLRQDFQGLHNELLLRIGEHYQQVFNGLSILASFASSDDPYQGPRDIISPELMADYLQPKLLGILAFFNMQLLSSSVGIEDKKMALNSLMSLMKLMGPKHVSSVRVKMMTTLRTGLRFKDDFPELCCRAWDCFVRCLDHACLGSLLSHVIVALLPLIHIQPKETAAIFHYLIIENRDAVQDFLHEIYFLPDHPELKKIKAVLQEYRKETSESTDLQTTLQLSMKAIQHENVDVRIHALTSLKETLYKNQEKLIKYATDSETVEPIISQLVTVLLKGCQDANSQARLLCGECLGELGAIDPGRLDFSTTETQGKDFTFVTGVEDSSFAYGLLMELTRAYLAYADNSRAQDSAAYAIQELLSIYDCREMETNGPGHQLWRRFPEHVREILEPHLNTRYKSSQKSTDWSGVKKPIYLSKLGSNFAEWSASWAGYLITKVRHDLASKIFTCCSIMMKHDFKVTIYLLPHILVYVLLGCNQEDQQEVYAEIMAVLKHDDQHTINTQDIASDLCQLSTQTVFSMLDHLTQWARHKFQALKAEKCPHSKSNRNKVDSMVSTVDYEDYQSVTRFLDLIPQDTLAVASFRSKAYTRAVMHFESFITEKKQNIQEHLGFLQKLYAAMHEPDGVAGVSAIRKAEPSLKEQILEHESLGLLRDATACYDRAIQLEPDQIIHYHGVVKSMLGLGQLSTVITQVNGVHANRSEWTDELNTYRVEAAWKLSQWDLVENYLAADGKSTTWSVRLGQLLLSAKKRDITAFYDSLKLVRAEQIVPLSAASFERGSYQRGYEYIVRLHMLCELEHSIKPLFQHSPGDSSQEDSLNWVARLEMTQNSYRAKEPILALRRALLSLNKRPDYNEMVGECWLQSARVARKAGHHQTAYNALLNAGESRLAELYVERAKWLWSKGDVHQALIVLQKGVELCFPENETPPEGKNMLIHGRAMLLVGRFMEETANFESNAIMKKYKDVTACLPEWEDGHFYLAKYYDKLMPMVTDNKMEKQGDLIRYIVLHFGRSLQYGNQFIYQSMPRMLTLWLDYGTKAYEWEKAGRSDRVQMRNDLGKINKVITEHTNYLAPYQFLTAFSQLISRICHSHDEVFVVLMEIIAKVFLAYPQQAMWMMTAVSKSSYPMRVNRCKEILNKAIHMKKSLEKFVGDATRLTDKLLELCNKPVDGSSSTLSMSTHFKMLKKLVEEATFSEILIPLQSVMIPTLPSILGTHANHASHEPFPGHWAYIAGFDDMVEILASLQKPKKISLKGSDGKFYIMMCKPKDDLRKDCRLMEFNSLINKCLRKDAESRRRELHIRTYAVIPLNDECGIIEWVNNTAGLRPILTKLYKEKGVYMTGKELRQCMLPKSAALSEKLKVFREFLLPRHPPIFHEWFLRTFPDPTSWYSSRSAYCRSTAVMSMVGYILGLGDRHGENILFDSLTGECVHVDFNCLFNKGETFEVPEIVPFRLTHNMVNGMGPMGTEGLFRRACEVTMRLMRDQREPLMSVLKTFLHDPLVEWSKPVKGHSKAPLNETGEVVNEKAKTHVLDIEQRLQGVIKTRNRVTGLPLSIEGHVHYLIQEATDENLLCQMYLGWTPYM

Calls of active or inactive are those of the source. Bounds are passed on as bounds.
Also: in the data inactive means no Kd found up to 30 µM.

Sequence of Cyclin-dependent kinase 17 (Q00537 whole entry): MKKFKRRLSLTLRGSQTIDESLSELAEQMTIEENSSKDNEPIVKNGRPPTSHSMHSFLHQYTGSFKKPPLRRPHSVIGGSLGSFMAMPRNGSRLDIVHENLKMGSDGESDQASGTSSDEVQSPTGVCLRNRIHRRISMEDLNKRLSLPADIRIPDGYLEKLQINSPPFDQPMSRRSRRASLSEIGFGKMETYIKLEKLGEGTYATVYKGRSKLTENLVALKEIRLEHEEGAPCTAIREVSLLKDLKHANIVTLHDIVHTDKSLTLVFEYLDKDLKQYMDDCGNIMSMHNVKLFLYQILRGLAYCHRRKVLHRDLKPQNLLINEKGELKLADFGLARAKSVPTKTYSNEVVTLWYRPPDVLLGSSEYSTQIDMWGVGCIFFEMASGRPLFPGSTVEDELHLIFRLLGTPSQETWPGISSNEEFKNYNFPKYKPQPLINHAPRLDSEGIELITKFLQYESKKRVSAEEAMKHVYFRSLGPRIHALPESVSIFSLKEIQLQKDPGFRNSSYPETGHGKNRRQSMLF
Sequence of Serine/threonine-protein kinase Nek7 (Q8TDX7 whole entry): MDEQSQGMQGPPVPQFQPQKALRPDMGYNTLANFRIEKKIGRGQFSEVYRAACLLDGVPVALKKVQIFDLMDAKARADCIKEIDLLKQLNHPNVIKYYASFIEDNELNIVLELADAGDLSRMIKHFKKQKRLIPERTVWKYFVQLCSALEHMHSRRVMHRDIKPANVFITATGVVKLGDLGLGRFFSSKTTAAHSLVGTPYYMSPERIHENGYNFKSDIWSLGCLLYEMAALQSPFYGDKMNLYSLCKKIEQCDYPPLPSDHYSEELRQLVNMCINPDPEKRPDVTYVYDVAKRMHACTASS
Sequence of Choline-phosphate cytidylyltransferase A (P49585 whole entry): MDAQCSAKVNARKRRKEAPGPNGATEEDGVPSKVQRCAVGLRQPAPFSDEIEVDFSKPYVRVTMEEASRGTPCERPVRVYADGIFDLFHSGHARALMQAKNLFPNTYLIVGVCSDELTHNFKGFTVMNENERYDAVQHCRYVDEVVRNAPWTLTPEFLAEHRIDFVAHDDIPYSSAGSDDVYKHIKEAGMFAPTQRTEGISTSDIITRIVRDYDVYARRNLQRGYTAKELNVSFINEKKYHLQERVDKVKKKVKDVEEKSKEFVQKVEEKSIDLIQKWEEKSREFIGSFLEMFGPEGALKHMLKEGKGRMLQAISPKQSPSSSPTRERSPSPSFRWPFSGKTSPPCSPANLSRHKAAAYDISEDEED
Sequence of Protein kinase C theta type (Q04759 whole entry): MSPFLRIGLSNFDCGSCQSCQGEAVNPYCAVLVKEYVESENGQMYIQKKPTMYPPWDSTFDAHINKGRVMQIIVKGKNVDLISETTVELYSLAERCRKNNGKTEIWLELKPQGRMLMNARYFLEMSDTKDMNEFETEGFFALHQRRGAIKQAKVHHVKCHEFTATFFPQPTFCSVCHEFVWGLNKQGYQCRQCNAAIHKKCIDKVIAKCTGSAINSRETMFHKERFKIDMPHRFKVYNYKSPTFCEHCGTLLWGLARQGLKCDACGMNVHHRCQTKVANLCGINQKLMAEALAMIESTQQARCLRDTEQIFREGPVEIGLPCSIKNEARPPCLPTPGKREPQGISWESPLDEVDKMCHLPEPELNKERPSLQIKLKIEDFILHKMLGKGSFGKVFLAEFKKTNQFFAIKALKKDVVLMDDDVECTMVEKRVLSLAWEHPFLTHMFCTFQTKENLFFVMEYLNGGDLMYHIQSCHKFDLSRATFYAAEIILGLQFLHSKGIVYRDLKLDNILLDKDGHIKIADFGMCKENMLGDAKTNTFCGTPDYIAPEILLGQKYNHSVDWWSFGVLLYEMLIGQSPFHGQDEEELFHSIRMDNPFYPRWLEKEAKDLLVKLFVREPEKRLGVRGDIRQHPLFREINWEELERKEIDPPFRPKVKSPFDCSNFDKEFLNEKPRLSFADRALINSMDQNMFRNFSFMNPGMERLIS

A word on the Kd: it is the equilibrium constant for the complex coming apart. Turning to `S=C(NCc1ccc2c(c1)OCO2)N1CCN(c2ncnc3c2oc2ccccc23)CC1` [AMUVATINIB], the Kd in assay [1], in assay [2], in assay [3], in assay [4], in assay [5] and in assay [6] was > 30 µM (inactive) in each case.
Regarding `c1cc(OCCN2CCCCC2)cc(-c2n[nH]c3ccc(-c4nc[nH]n4)cc23)c1` [CC-401], the Kd in assay [1], in assay [2], in assay [3], in assay [7], in assay [5] and in assay [6] was > 30 µM (inactive) in each case.
Consider `CCN1CCN(Cc2ccc(Nc3ncc(F)c(-c4cc(F)c5nc(C)n(C(C)C)c5c4)n3)nc2)CC1` [ABEMACICLIB], for which the Kd in assay [2], in assay [4], in assay [8], in assay [7], in assay [5] and in assay [6] was > 30 µM (inactive) each time.
As to `Cn1c(=O)c(F)c(Nc2ccc(I)cc2F)c2c(=O)n(C[C@@H](O)CO)cnc21` [TAK-733], the Kd in assay [1], in assay [2], in assay [3], in assay [7], in assay [5] and in assay [6] was > 30 µM (inactive) in each case.
`COc1cc(Nc2ncc(F)c(Nc3ccc4c(n3)N(COP(=O)(O)O)C(=O)C(C)(C)O4)n2)cc(OC)c1OC` [FOSTAMATINIB]: the Kd in assay [1], in assay [2], in assay [3], in assay [4], in assay [8] and in assay [7] was > 30 µM (inactive) in each case. Also, the Kd in assay [5] and in assay [6] was > 30 µM (inactive) each time.
Take `C#Cc1cccc(Nc2ncnc3cc4c(cc23)OCCOCCOCCO4)c1` [ICOTINIB]: the Kd in assay [1], in assay [2], in assay [3], in assay [4], in assay [8] and in assay [7] was > 30 µM (inactive) throughout. The Kd in assay [5] and in assay [6] was > 30 µM (inactive) in each case.
In the case of `O=S(=O)(c1cccc2cnccc12)N1CCCNCC1` [FASUDIL], the Kd in assay [1], in assay [3], in assay [7] and in assay [6] was > 30 µM (inactive) throughout.
As for `Cc1c(Cn2c(C)nc3c(C(=O)O)cc(N4CCOCC4)cc32)cccc1C(F)(F)F` [GSK-2636771], the Kd in assay [1], in assay [2], in assay [3], in assay [4], in assay [8] and in assay [7] was > 30 µM (inactive) in each case. In addition, the Kd in assay [5] and in assay [6] was > 30 µM (inactive) in each case.
As for `Cc1cc(Nc2nc(N[C@@H](C)c3ncc(F)cn3)ncc2Cl)n[nH]1` [AZD-1480], the Kd in assay [1], in assay [2], in assay [3], in assay [4], in assay [8] and in assay [7] was > 30 µM (inactive) throughout. Moreover, the Kd in assay [5] and in assay [6] was > 30 µM (inactive) each time.
For the compound `Cc1ccc(C(=O)Nc2ccc(Oc3cc4cnn(C)c4cc3-c3cn[nH]c3)c(F)c2)c(=O)n1-c1ccc(F)cc1` [MERESTINIB], the Kd in assay [1], in assay [2], in assay [4], in assay [8], in assay [7] and in assay [5] was > 30 µM (inactive) throughout. Moreover, in assay [6], the Kd is > 30 µM (inactive).
On to `CC(C)CC(=O)Nc1[nH]nc2c1CN(C(=O)C1CCN(C)CC1)C2(C)C` [PHA-793887], for which the equilibrium dissociation constant (Kd) was 2.34 µM (active) in assay [2]; > 30 µM (inactive) in assay [3]; > 30 µM (inactive) in assay [4]; > 30 µM (inactive) in assay [7]; > 30 µM (inactive) in assay [6].
`O=C(NOC[C@H](O)CO)c1ccc(F)c(F)c1Nc1ccc(I)cc1F` [MIRDAMETINIB]: the Kd in assay [1], in assay [2], in assay [3], in assay [7], in assay [5] and in assay [6] was > 30 µM (inactive) throughout.
With `COc1ccc2c(OCc3nnc4ccc(-c5ccccc5)nn34)ccnc2c1` [AMG-208], the Kd in assay [1], in assay [2], in assay [4], in assay [8], in assay [7] and in assay [5] was > 30 µM (inactive) each time. For the same compound, in assay [6], the Kd is > 30 µM (inactive).
Turning to `COc1ccc(-c2ccc3ncc4c(c3c2)n(-c2ccc(N3CCNCC3)c(C(F)(F)F)c2)c(=O)n4C)cn1` [BGT-226 FREE BASE], the Kd in assay [1], in assay [2], in assay [3], in assay [4], in assay [7] and in assay [6] was > 30 µM (inactive) throughout.

(Values after ChEMBL document CHEMBL3991601, “The target landscape of clinical kinase drugs” (Science, 2017).)
